Consider 25 compounds from ChEMBL document CHEMBL1153754, “1-Aryl-3,4-dihydroisoquinoline inhibitors of JNK3” (Bioorg Med Chem Lett, 2009).

Bounds are passed on as bounds.

For experiment [1], the target named is T1, Mitogen-activated protein kinase 10 (Homo sapiens, UniProt P53779). Put plainly: Inhibition of N-terminal His(6)-tagged truncated human JNK3 transfected in baculovirus expression system by fluorescence anisotropy. For orientation: In fluorescence polarisation assays a small probe gives low polarisation when free and higher when bound to something large.

Experiment [2] addresses T2, Mitogen-activated protein kinase 14 (Homo sapiens, UniProt Q16539). The experiment in a line: Inhibition of N-terminal GST-tagged p38alpha expressed in Escherichia coli by fluorescence anisotropy.
In experiment [3] the target is T2, Mitogen-activated protein kinase 14. Put plainly: Inhibition of histidine-tagged human recombinant p38alpha after 120 mins by TR-FRET assay.
In experiment [4] the target is T1, Mitogen-activated protein kinase 10. The experiment in a line: Inhibition of JNK3 by high throughput screening.
The target in experiment [5] is T2, Mitogen-activated protein kinase 14. Put plainly: Inhibition of p38alpha by high throughput screening.
The target in experiment [6] is T3, Mitogen-activated protein kinase 8 (Homo sapiens, UniProt P45983). Put plainly: Inhibition of JNK1 by high throughput screening.
Experiment [7] addresses T3, Mitogen-activated protein kinase 8. The experiment in a line: Inhibition of N-terminal histidine-tagged human full length JNK1-alpha-1 by radiometric filter binding assay.
Experiment [8] concerns the target Tyrosine-protein kinase Lck (Homo sapiens, UniProt P06239).
The target in experiment [9] is T4, Inhibitor of nuclear factor kappa-B kinase subunit beta (Homo sapiens, UniProt O14920).
T4 sequence (O14920 whole entry): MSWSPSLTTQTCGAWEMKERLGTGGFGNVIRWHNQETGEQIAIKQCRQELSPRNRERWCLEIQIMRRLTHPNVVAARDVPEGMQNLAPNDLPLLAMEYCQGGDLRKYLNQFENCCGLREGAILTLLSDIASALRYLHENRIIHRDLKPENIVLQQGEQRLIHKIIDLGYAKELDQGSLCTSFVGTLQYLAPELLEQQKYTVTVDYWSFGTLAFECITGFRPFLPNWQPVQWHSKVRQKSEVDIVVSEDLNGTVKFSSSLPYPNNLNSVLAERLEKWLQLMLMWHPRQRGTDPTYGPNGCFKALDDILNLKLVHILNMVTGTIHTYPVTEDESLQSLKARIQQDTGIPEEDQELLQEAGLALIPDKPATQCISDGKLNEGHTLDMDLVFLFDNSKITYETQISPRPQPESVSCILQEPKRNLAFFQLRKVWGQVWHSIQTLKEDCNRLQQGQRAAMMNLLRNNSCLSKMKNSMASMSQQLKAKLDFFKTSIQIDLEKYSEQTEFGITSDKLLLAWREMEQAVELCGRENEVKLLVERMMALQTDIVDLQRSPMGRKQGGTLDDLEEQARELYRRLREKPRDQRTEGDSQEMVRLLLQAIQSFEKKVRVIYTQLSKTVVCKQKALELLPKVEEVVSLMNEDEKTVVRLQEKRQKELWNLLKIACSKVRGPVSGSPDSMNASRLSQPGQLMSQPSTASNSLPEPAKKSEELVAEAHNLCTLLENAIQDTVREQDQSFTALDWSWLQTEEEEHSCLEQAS
The experiment in a line: Inhibition of IKK-beta.

Experiment [10] concerns the target Mitogen-activated protein kinase kinase kinase 11 (Homo sapiens, UniProt Q16584). Put plainly: Inhibition of MLK3.
The target of experiment [11] is Receptor tyrosine-protein kinase erbB-2 (Homo sapiens, UniProt P04626). The experiment in a line: Inhibition of ErbB2.
The target of experiment [12] is Mitogen-activated protein kinase 1 (Homo sapiens, UniProt P28482). Put plainly: Inhibition of N-terminal GST-tagged human full length Erk2 by radiometric filter binding assay.
For experiment [13], the target named is T5, Serine/threonine-protein kinase Sgk1 (Homo sapiens, UniProt O00141).
T5 sequence (O00141 whole entry): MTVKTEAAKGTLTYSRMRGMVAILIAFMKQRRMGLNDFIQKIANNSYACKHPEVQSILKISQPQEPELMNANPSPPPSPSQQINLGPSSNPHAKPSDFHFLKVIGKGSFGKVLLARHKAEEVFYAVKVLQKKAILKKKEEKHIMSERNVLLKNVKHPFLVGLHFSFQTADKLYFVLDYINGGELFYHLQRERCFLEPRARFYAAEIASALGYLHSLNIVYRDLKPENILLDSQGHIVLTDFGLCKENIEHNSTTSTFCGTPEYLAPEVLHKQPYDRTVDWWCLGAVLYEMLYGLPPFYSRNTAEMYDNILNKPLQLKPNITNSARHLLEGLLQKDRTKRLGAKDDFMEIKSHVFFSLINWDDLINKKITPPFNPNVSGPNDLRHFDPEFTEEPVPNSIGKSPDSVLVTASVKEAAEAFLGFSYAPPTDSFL
Put plainly: Inhibition of SGK1.

The target in experiment [14] is Serine/threonine-protein kinase B-raf (Homo sapiens, UniProt P15056). Put plainly: Inhibition of B-Raf.
In experiment [15] the target is Rho-associated protein kinase 1 (Homo sapiens, UniProt Q13464). Put plainly: Inhibition of ROCK1.
For experiment [16], the target named is Cyclin-dependent kinase 2 (Homo sapiens, UniProt P24941). Put plainly: Inhibition of CDK2.
In experiment [17] the target is Macrophage colony-stimulating factor 1 receptor (Homo sapiens, UniProt P07333). The experiment in a line: Inhibition of c-Fms.
Experiment [18] deals with T1, Mitogen-activated protein kinase 10. Put plainly: Inhibition of N-terminal histidine-tagged human full length JNK3 by radiometric filter binding assay.
Experiment [19] concerns the target Serine/threonine-protein kinase PLK1 (Homo sapiens, UniProt P53350). Put plainly: Inhibition of PLK1.
Experiment [20] concerns the target Glycogen synthase kinase-3 beta (Homo sapiens, UniProt P49841). Put plainly: Inhibition of GSK3-beta.
Experiment [21] deals with Mitogen-activated protein kinase 9 (Homo sapiens, UniProt P45984). Put plainly: Inhibition of N-terminal histidine-tagged human full length JNK2-alpha-2 by radiometric filter binding assay.
The target of experiment [22] is T6, Inhibitor of nuclear factor kappa-B kinase subunit alpha (Homo sapiens, UniProt O15111).
T6 sequence (O15111 whole entry): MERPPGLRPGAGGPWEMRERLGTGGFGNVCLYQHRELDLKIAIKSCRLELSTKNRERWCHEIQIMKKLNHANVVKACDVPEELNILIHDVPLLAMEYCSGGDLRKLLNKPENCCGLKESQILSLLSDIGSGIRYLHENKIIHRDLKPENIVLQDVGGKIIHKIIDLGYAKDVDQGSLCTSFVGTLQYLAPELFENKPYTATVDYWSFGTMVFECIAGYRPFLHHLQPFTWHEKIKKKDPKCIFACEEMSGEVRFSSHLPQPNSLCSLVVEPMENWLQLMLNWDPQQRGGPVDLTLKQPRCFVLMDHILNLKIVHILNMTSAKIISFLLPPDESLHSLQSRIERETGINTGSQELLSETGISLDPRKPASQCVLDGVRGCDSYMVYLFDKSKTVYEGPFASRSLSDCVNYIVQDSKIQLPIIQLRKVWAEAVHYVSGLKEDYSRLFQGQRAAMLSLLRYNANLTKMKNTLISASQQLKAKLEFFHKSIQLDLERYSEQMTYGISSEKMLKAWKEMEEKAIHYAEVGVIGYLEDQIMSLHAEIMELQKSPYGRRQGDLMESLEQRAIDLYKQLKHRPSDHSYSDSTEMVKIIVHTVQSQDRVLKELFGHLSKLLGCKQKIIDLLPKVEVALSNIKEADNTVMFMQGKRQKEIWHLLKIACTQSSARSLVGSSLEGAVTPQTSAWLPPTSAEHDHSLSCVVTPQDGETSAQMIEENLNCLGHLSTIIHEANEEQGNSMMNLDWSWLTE
The experiment in a line: Inhibition of IKKalpha.

T1 sequence (P53779 whole entry, the tested form may be a part): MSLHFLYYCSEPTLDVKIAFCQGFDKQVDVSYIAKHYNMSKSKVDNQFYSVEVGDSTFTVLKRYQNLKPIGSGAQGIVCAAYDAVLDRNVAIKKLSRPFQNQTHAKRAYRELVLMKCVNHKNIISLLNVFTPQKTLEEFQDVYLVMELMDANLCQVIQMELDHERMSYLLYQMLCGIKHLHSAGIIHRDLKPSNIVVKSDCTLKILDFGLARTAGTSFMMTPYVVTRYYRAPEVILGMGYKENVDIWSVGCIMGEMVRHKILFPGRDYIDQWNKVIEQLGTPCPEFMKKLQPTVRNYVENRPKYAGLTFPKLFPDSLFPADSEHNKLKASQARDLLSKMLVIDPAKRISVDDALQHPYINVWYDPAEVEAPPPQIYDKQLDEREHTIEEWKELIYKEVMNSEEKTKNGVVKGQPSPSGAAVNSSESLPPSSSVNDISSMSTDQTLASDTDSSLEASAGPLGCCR
T3 sequence (P45983 whole entry): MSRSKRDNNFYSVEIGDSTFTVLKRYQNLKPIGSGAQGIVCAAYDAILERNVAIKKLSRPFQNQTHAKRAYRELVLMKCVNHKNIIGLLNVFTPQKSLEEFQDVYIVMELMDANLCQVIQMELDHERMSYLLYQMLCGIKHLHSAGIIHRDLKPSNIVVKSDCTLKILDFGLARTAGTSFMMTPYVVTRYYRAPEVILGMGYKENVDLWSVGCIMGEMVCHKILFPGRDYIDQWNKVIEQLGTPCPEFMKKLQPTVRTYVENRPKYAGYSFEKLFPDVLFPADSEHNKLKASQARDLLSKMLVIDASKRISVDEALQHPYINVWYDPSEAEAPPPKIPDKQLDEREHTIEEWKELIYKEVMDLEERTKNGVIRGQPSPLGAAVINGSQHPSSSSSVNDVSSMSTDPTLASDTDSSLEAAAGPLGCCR
T2 sequence (Q16539 whole entry): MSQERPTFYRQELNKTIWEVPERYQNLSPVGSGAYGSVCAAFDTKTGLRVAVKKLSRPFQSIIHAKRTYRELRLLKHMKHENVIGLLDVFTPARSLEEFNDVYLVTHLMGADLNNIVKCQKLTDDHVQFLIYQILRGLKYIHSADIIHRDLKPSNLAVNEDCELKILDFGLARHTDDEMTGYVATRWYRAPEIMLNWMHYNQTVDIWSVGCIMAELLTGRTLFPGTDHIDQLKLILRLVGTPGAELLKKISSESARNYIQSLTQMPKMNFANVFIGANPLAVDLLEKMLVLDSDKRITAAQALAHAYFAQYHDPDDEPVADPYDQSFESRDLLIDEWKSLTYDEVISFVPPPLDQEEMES
Sequence of Glycogen synthase kinase-3 beta (P49841 whole entry): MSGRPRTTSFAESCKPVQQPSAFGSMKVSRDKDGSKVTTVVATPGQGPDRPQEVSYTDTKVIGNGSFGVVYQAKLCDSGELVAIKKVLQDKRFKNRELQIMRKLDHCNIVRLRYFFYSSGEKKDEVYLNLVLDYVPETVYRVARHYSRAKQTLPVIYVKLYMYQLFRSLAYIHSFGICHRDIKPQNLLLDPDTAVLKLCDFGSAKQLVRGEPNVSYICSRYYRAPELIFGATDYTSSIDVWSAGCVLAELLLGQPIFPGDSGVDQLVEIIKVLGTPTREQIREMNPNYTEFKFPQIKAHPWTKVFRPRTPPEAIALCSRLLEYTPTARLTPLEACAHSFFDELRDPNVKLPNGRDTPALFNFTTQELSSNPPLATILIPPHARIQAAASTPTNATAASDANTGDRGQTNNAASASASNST
Sequence of Rho-associated protein kinase 1 (Q13464 whole entry): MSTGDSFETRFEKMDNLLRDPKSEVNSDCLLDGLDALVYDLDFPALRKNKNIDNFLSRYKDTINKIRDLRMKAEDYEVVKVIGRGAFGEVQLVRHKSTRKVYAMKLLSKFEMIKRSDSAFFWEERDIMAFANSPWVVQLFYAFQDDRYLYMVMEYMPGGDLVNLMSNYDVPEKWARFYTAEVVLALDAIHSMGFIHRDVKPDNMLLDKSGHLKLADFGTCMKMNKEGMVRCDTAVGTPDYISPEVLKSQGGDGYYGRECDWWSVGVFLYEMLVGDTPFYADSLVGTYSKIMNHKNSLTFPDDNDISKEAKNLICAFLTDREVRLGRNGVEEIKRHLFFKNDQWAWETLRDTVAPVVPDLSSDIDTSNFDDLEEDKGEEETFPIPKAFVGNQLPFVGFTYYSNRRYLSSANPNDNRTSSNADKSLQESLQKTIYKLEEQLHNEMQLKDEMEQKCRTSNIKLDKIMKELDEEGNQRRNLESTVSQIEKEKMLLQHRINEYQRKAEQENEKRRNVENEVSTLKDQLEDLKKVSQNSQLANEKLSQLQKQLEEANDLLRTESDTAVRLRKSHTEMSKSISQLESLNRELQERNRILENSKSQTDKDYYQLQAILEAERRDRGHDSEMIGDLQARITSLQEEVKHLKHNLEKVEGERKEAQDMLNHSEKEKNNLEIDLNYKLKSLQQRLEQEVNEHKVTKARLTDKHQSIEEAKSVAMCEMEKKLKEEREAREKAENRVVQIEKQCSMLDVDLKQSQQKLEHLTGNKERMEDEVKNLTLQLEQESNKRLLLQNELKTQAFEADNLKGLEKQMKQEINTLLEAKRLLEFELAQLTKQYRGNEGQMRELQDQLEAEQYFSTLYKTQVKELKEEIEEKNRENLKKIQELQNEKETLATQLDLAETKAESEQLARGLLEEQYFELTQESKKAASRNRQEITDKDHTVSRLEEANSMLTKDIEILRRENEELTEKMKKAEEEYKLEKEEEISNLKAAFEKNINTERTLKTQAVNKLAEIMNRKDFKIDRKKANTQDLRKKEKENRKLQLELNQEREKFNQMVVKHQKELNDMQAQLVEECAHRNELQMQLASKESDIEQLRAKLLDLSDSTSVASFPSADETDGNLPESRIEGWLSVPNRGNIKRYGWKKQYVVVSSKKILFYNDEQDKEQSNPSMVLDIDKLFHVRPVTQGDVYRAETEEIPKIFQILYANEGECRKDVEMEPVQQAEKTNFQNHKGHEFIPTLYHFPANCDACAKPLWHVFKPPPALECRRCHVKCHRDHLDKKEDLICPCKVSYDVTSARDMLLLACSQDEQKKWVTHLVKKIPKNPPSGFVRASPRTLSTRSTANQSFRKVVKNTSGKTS
Sequence of Receptor tyrosine-protein kinase erbB-2 (P04626 whole entry): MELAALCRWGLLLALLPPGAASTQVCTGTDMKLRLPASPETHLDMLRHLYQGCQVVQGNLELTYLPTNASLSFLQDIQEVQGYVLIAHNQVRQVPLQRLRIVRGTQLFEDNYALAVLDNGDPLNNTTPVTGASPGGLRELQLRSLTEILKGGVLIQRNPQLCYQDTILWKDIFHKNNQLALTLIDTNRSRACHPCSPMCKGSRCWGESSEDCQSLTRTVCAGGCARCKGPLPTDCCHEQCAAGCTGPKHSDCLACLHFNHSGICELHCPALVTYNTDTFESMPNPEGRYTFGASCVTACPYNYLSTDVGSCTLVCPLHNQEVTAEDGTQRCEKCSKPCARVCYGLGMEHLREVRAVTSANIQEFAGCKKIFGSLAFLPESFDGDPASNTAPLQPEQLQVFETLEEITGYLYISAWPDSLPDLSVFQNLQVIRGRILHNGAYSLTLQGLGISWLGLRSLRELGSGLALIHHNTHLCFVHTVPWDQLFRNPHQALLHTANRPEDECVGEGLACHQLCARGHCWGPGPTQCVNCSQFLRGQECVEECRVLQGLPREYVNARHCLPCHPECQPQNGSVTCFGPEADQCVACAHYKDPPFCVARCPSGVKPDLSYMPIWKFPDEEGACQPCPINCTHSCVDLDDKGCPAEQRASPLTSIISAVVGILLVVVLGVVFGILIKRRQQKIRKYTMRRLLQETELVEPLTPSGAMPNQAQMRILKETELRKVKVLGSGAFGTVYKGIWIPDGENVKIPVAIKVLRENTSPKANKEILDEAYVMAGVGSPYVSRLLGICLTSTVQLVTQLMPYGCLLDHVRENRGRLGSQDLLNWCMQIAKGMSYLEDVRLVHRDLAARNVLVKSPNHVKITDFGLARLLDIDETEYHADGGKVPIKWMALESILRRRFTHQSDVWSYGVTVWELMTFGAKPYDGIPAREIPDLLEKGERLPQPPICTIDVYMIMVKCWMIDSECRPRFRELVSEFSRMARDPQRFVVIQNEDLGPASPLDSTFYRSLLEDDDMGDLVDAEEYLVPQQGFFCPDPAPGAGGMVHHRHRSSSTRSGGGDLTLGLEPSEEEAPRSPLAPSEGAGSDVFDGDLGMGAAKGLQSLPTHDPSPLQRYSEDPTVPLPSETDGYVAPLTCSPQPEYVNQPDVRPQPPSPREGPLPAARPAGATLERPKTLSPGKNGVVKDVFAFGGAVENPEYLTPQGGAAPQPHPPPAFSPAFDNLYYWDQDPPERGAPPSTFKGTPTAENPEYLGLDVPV
Sequence of Serine/threonine-protein kinase PLK1 (P53350 whole entry): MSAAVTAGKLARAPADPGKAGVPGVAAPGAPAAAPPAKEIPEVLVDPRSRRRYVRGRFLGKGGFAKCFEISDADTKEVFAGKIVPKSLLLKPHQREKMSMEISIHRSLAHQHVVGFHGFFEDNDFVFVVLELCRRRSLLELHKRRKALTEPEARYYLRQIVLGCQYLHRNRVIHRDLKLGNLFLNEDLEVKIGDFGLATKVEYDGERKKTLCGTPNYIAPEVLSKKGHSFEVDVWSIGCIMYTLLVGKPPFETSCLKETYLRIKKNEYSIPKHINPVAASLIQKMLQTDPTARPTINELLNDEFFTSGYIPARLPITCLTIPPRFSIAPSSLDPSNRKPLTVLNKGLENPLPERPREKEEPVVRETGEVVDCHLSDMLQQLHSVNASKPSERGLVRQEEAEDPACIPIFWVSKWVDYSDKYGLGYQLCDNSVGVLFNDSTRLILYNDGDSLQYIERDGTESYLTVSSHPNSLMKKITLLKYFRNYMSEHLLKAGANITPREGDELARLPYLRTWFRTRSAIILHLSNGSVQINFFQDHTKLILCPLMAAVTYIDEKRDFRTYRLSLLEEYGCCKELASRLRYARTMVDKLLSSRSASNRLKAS

Broadly, the IC50 is the concentration at which inhibition is half-maximal. Consider `COc1cccc(C2=NCCc3cc(OC)c(OC)cc32)c1`, for which the IC50 in experiment [1] and in experiment [2] was greater than 15.8 µM throughout.

In the case of `COc1cc2c(cc1OC)C(c1ccc(Cl)c(Cl)c1)=NCC2`, the IC50 in experiment [1] was 6.31 µM; in [2], greater than 15.8 µM.

As to `COc1cc2c(cc1Cl)CCN=C2c1ccccc1`, the IC50 in experiment [1] and in [3] was greater than 15.8 µM in each case.

Turning to `Clc1cccc(C2=NCCc3ccccc32)c1`, the IC50 in [1] and in [2] was greater than 15.8 µM in each case.

For `COc1cc2c(cc1Cl)C(c1cccc(F)c1)=NCC2`, the IC50 in experiment [1] is 3.98 µM; in [2] it was greater than 15.8 µM.

`COc1cc2c(cc1OC)C(c1ccccc1)=NCC2`: the IC50 in experiment [1] and in experiment [3] was greater than 15.8 µM each time.

Take `COc1cc2c(cc1Cl)CCN=C2c1ccc2ccccc2c1`: the IC50 in experiment [1] and in experiment [3] was greater than 15.8 µM in each case.

In the case of `COc1cc2c(cc1Cl)CCN=C2c1cccc(Cl)c1`, the half-inhibitory concentration (IC50) in [1] is 12.6 µM; in experiment [3] it was greater than 15.8 µM.

With `COc1cc2c(cc1Cl)CCN=C2c1ccc(F)cc1`, the IC50 in [1] and in [3] was greater than 15.8 µM in each case.

For the compound `COc1cc2c(cc1Cl)CCN=C2c1ccc(Cl)c(Cl)c1`, the results for the IC50 in experiment [1] and in experiment [3] were 15.8 µM and greater than 15.8 µM, respectively.

Regarding `COc1cc2c(cc1Cl)C(c1cccc(Cl)c1F)=NCC2`, the IC50 in experiment [1] is 0.631 µM; in [2], 12.6 µM.

`COc1cc2c(cc1OC)C(c1cccc(Cl)c1)=NCC2`: in experiment [4], the IC50 is 10 µM.

Consider `COc1cc2c(cc1Cl)CCN=C2c1cccc(Br)c1`, for which the figures for the IC50 in experiment [1] and in experiment [3] were 10 µM and greater than 15.8 µM, respectively.

With `COc1cc2c(cc1OC)C(c1ccc(Cl)cc1)=NCC2`, the IC50 in [1] and in experiment [2] was greater than 15.8 µM in each case.

On to `O=C(NC1CCNCC1)c1cccc(-c2n[nH]c3cc(Nc4ccccc4Cl)ccc23)c1`, for which the figures for the IC50 in experiment [5], in [4] and in experiment [6] were 0.00398 µM, 0.00126 µM and 0.0794 µM, respectively.

Regarding `COc1cc2c(cc1Cl)C(c1cccc(C)c1)=NCC2`, the IC50 in [1] is 2 µM; in experiment [2], greater than 15.8 µM.

For `COc1cc2c(cc1Cl)C(c1ccccc1)=NCC2`, the IC50 in experiment [1] is 6.31 µM; in experiment [2] it was greater than 15.8 µM.

`COc1cc2c(cc1Cl)C(c1cccc(Cl)c1)=NCC2`: the IC50 in experiment [1] was 0.251 µM; in experiment [7], greater than 100 µM; in [8], greater than 10 µM; in experiment [9], greater than 10 µM; in experiment [10], greater than 10 µM; in experiment [11], greater than 10 µM. Further, the IC50 in experiment [12] was greater than 100 µM; in experiment [13], greater than 10 µM; in experiment [14], greater than 10 µM; in experiment [15], greater than 10 µM; in experiment [16], greater than 10 µM; in [17], greater than 10 µM. Also, the IC50 in [18] is 0.126 µM; in [19], greater than 10 µM; in experiment [20] it was greater than 10 µM; in [21], 1.26 µM; in experiment [2] it was 7.94 µM; in experiment [22], greater than 10 µM.

As to `COc1cc2c(cc1Cl)C(c1ccc(Cl)c(Cl)c1)=NCC2`, the IC50 in experiment [1] was 0.316 µM; in experiment [7] it was 100 µM; in experiment [9], greater than 10 µM; in experiment [10] it was greater than 10 µM; in experiment [11], greater than 10 µM; in [12], greater than 100 µM. The IC50 in experiment [13] is greater than 10 µM; in [14] it was greater than 10 µM; in experiment [15] it was greater than 10 µM; in [16] it was greater than 10 µM; in experiment [17], greater than 10 µM; in experiment [18] it was 0.0501 µM. The IC50 in [19] was greater than 10 µM; in experiment [20] it was greater than 10 µM; in experiment [21], 0.794 µM; in experiment [2] it was 7.94 µM; in [22] it was greater than 10 µM.

Consider `COc1cc2c(cc1Cl)C(c1cccc(Br)c1)=NCC2`, for which the IC50 in [1] was 0.398 µM; in experiment [2] it was 12.6 µM.

Regarding `COc1cc2c(cc1Cl)C(c1ccc3ccccc3c1)=NCC2`, the values for the IC50 in [1] and in experiment [2] were 1 µM and greater than 15.8 µM, respectively.

For the compound `COc1cc2c(cc1Cl)C(c1ccc(F)cc1)=NCC2`, the IC50 in [1] is 5.01 µM; in experiment [2] it was greater than 15.8 µM.

With `CCC1=NCCc2cc(OC)c(Cl)cc21`, the IC50 in experiment [1] and in experiment [2] was greater than 15.8 µM each time.

As for `COc1cc2c(cc1Cl)CCN=C2c1cccc(F)c1`, the IC50 in experiment [1] and in experiment [3] was greater than 15.8 µM each time.

For the compound `COc1cc2c(cc1Cl)C(Cc1ccccc1)=NCC2`, the half-inhibitory concentration (IC50) in [1] and in [2] was greater than 15.8 µM in each case.
